“And” between values parts separate entries of the source, which are not always exact repeats. Identical values can stand only once.
Key:
[1] = biological target: T1, rA3R (Rattus norvegicus, UniProt P28647); test: cAMP inhibition at rA3R (Flp-In-CHO); format: cell-based; settings: for Range rA3R: range of response as percentage of response to 10 μM forskolin
T1 construct: expressed in transfected cells; host or cells: Flp-In-CHO (ThermoFisher R75807), pcDNA5/FRT
T1 sequence (P28647 1-320): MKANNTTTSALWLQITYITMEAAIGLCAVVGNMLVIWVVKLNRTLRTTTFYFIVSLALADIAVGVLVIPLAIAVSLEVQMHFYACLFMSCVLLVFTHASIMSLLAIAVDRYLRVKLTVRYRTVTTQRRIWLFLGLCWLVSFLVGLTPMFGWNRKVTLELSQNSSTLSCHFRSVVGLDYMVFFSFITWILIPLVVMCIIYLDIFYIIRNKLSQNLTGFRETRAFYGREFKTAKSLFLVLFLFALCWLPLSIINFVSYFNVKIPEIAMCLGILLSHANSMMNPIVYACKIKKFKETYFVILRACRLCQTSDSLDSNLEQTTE
Text: Cell lines were maintained using standard subculturing routines as guided by the European Collection of Cell Culture (ECACC) and checked annually for mycoplasma infection using an EZ-PCR mycoplasma test kit from Biological Industries (Kibbutz Beit-Haemek, Israel). To investigate the signalling properties of the rat A3R (rA3R) and mutants of the human A1R (hA1R), stable cell lines were generated using Flp-In-CHO cells (ThermoFisher - R75807). Untagged hA1R from sigNanoLuciferase (Nluc)-A1R in pcDNA3.1+ and untagged rA3R from sigNluc-A3R in pcDNA3.1 + (both gifted by Dr Steve Briddon (University of Nottingham)) were cloned into the pcDNA5/FRT expression vector (Thermo Fisher Scientific). Mutations within the hA1R were made using the QuikChange Lightening Site-Directed Mutagenesis Kit (Agilent Technologies) in accordance with the manufacturer’s instructions. Constructs for generating Goa/b interfering and scrambled peptides were generated by PCR and cloned into the BamHI/HindIII site of pcDNA3.1- as described in Gilchrist et al.[60],. Prior to the initiator codon a Kozak sequence was included for enhanced translation. The peptide sequences used were: for Goa […], for Gob […], and for the scrambled peptide […] was used. Constructs were sequenced to confirm fidelity. Flp-In-CHO cells were generated through co-transfection of the cell line with pcDNA5/FRT expression vector (Thermo Fisher Scientific) containing the WT or mutant hA1R, or rA3R, and the Flp recombinase expressing plasmid, pOG44 (Thermo Fisher Scientific), in accordance with the manufacturer’s instructions. […] CHO cell lines expressing ARs of interest (including mutants of the hA1R) were routinely cultured in Ham’s F-12 nutrient mix supplemented with 10% foetal bovine serum (FBS), at 37 °C with 5% CO2, in a humidified atmosphere.

[2] = biological target: T2, hA1R:Gob (Homo sapiens, UniProt P30542); test: cAMP inhibition in PTX-treated CHO-K1-hA1R cells with PTX-insensitive Gob; settings: for Emax: read-out: Emax Gob; for Bias factor (Δ(τ/KA)) Gob: relative to adenosine, operational model; for cAMP accumulation, PTX-insensitive Gob (Fig. 2b): forskolin co-stimulation, individual repeats and mean
Target sequence in this assay (P30542 whole entry): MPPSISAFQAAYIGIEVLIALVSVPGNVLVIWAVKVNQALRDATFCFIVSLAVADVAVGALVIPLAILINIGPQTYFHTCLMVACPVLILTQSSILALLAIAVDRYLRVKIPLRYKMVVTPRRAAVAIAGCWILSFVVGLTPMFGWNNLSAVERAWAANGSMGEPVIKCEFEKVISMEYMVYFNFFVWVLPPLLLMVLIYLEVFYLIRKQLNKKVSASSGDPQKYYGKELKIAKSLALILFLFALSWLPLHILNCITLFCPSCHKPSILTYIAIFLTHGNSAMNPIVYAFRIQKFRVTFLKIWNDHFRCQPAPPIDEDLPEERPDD
Target sequence in this assay (P09471 2-354 isoform P09471-2 C351I partner limits assumed): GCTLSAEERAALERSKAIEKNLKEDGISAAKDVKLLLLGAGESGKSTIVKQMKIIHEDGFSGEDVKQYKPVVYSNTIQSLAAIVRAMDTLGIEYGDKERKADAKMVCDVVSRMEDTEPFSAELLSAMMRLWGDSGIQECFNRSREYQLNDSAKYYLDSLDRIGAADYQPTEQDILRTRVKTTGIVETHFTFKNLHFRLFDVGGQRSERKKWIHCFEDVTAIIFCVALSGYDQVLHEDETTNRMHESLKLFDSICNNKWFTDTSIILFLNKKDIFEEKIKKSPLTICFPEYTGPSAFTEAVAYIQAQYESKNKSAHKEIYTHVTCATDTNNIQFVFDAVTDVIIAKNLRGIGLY
Procedure: Cells were then incubated for 24 h before addition of 100 ng/ml PTX, to inhibit activity of endogenous Gαi/o, and then incubated for a further 16-18 h. Transfected cells were then assayed as per cAMP inhibition experiments, but co-stimulated with agonist and 100 nM forskolin.
All in vitro cell signalling assay data was analysed using Prism 8.4 (Graphpad software, San Diego, CA), with all concentration-response curves being fitted using a 3 parameter logistic equation to calculate response range and IC50. All cAMP data was normalised to a forskolin concentration-response curve ran in parallel to each assay.

[3] = biological target: T2, hA1R:Gob; test: TRUPATH G protein dissociation BRET assay, Gob; format: cell-based; parameters: cDNA resource centre (pcDNA3.1-A1R); settings: for EC50: Fig2h; for activation of Gob vs Goa: TRUPATH assay
Procedure: Cells were plated in a density of 1,500,000 cells/well in a 6-well plate and grown in DMEM /F-12 GlutaMAX™ media (Thermo Fisher Scientific, UK) supplemented with 10% FBS (Sigma, UK) and 1% AA (Sigma, UK). After being grown overnight, cells in each well were transfected using polyethylenimine 25 kDa (PEI, Polysciences Inc., Germany) at a 6:1 ratio of PEI to DNA, diluted in 150 mM NaCl. […] Gɑ (either Goa-RLuc8, or Gob-RLuc8), Gβ3 and Gγ8-GFP2 constructs were purchased as part of the TRUPATH sensor kit from Addgene, pcDNA3.1-A1R was obtained from cDNA resource centre, and pcDNA3.1 (-) zeo was purchased from Invitrogen. After 24 h, cells were trypsinised and re-seeded onto poly-L-lysine (PLL)-coated white 96-well plates (Greiner, UK) at the density of 50,000 cells/well in a complete DMEM/F-12 medium. After grown overnight, the culture media was discarded and replaced with 80 μl assay buffer (1× Hank’s balanced salt solution (HBSS) with calcium, supplemented with 20 mM HEPES and 0.1% BSA at pH 7.4). The assay was started by adding 10 μl of coelenterazine 400a (Nanolight technology, USA) to a final concentration of 5 μM. The plates were then incubated in the dark for 5 min, prior to the addition of 10 μl compounds (in a range of 0.01 nM – 1 µM). In order to investigate the effect of interfering peptides on Goa and Gob activation, cells were transfected with the TRUPATH constructs for Goa and Gob with the A1R as described above. However, the vector was replaced by either interfering or scrambled peptides, as appropriate, with increasing concentration: 0, 100, and 400 ng and was complemented by pcDNA3.1(-) up to 400 ng. […] BRET signal was recorded for 30 min on a Mithras LB940 plate reader allowing sequential integration of signal detected from GFP2 and Rluc8.
Target sequence in this assay (P30542 whole entry): as the sequence (P30542 whole entry) above
Target sequence in this assay (P09471 2-354 isoform P09471-2 partner limits assumed): as the sequence (P09471 2-354 isoform P09471-2 C351I partner limits assumed) above, with I350C counted along it
Target sequence in this assay (P16520 whole entry partner): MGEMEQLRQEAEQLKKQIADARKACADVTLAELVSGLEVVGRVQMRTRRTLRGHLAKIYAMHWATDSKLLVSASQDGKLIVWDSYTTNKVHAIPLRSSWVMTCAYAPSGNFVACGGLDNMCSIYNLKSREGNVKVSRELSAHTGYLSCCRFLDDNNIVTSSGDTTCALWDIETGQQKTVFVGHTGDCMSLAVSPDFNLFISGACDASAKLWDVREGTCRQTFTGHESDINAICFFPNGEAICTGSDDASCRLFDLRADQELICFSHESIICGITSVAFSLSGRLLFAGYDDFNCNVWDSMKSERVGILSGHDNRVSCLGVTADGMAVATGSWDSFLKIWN
Target sequence in this assay (Q9UK08 1-67 partner limits assumed): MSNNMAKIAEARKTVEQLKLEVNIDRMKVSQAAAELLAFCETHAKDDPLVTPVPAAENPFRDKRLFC

[4] = biological target: T3, hA3R (Homo sapiens, UniProt P0DMS8); test: cAMP inhibition at hA3R; format: cell-based; settings: for Range hA3R: range of response as percentage of response to 10 μM forskolin
T3 construct: expressed in transfected cells; host or cells: CHO-K1
T3 sequence (P0DMS8 1-318): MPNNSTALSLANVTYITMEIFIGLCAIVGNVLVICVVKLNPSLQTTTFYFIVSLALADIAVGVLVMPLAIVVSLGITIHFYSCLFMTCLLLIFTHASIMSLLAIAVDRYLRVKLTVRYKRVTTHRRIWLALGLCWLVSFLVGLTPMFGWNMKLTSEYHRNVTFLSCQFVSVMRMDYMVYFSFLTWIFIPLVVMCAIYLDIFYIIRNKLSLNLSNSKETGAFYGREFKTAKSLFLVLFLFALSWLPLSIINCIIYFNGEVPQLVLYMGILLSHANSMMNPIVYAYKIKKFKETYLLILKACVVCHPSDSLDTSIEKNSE
Procedure: CHO cell lines expressing ARs of interest (including mutants of the hA1R) were routinely cultured in Ham’s F-12 nutrient mix supplemented with 10% foetal bovine serum (FBS), at 37 °C with 5% CO2, in a humidified atmosphere.

Row | SMILES | IC50 ([1]; half-maximal response, cAMP inhibition, read-out: pIC50 rA3R (converted)) | Range rA3R [1] | EC50 [2] | Emax [2] | Bias factor (Δ(τ/KA)) Gob [2] | EC50 ([3]; individual replicate, read-out: TRUPATH Gob potency (converted)) | EC50 ([3]; n 8, read-out: TRUPATH Gob potency, Average (converted)) | activation of Gob vs Goa [3] | IC50 ([4]; half-maximal response, cAMP inhibition, read-out: pIC50 hA3R (converted)) | Range hA3R [4] | cAMP accumulation, PTX-insensitive Gob (Fig. 2b) ([2]; Log[Agonist] -6) | cAMP accumulation, PTX-insensitive Gob (Fig. 2b) ([2]; Log[Agonist] -6.5) | cAMP accumulation, PTX-insensitive Gob (Fig. 2b) ([2]; Log[Agonist] -7) | cAMP accumulation, PTX-insensitive Gob (Fig. 2b) ([2]; Log[Agonist] -7.5) | cAMP accumulation, PTX-insensitive Gob (Fig. 2b) ([2]; Log[Agonist] -8) | cAMP accumulation, PTX-insensitive Gob (Fig. 2b) ([2]; Log[Agonist] -8.5) | cAMP accumulation, PTX-insensitive Gob (Fig. 2b) ([2]; Log[Agonist] -9) | cAMP accumulation, PTX-insensitive Gob (Fig. 2b) ([2]; Log[Agonist] -10) | pIC50 hA3R ([4]; half-maximal response, cAMP inhibition)
1 | OC[C@H]1O[C@@H](n2cnc3c(N[C@@H]4CCC[C@H]4O)ncnc32)[C@H](O)[C@@H]1O [HOCPA, (2 R,3 R,4 S,5 R)−2-(6-{[(1 R,2 R)−2-hydroxycyclopentyl]amino}−9H-purin-9-yl)−5-(hydroxymethyl)oxolane-3,4-diol] | 38.9 nM | 68.79 ± 3.70% | 603 nM | -35.5% | 11.4176 | 132 nM and 51.3 nM and 38 nM and 46.8 nM and 61.7 nM and 50.1 nM and 52.5 nM | 57.5 nM | equipotent activation of both Goa and Gob | 24.5 nM | 45.0 ± 2.1% | – | – | – | – | – | – | – | – | –
2 | OC[C@H]1O[C@@H](n2cnc3c(NC4CCCC4)ncnc32)[C@H](O)[C@@H]1O [CPA, N^6-Cyclopentyladenosine] | – | 68.79 ± 3.67% | – | -31.8% | 2.263 | – | – | equipotent activation of both Goa and Gob | – | N.R. | -30.7 and -34.041 and -25.068 and -30.1931 and -28.2815 and -42.9468 and -23.6463 | -29.1 and -23.2817 and -30.2927 and -27.2185 and -29.2939 and -35.2937 and -29.3947 | -11.3 and -6.131 and -4.497 and -15.3895 and -20.4135 and -9.305 | -3.4 and 0.1928 and -6.183 and -4.138 and -8.294 and -3.294 | 0.0 and 0 (6×) | 0.0 and 0 (6×) | 0 (6×) and 0.0 | 0 (6×) and 0.0 | N.R.

Source: publication PMC9293909 (Nature Communications, 2022)
